Results: ChEMBL document CHEMBL1201862, “PubChem BioAssay data set” (2004)
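Dose response: 5 concentrations. Exposure: 48 h. Format: 96-well plates. Endpoint: linear interpolation; highest concentration if not reached. GI50 is the concentration that inhibits growth by half.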 Activity calls are given as the source filed them. No stated cut-off is given here; in the data, active = GI50 up to about 1.1 µM and inactive = higher.

What was measured:
Test in all cases: NCI-60 cell line screen, 48 h
[1] = test system: A498
[2] = test system: HT-29
[3] = test system: NCI-H522
[4] = test system: SK-MEL-2
[5] = test system: RPMI-8226
[6] = test system: SK-MEL-28
[7] = test system: Hs-578T
[8] = test system: KM12
[9] = test system: MCF7
[10] = test system: SN12C
[11] = test system: Malme-3M
[12] = test system: LOX IMVI
[13] = test system: SR
[14] = test system: CCRF-CEM
[15] = test system: M14
[16] = test system: EKVX
[17] = test system: MDA-MB-231
[18] = test system: UACC-62
[19] = test system: DU-145
[20] = test system: HCT-15
[21] = test system: TK-10
[22] = test system: SF-268
[23] = test system: ACHN
[24] = test system: OVCAR-5
[25] = test system: BT-549
[26] = test system: OVCAR-3
[27] = test system: MDA-MB-435
[28] = test system: HCC 2998
[29] = test system: UO-31
[30] = test system: UACC-257
[31] = test system: NCI-H226
[32] = test system: SK-OV-3
[33] = test system: HCT-116
[34] = test system: SNB-19
[35] = test system: SF-539
[36] = test system: SNB-75
[37] = test system: RXF 393
[38] = test system: T47D
[39] = test system: HL-60
[40] = test system: NCI-H23
[41] = test system: MDA-N
[42] = test system: HOP-62
[43] = test system: U-251
[44] = test system: K562
[45] = test system: NCI-H460
[46] = test system: MOLT-4
[47] = test system: OVCAR-4
[48] = test system: HOP-92
[49] = test system: A549
[50] = test system: CAKI-1
[51] = test system: COLO 205
[52] = test system: 786-0
[53] = test system: SF-295
[54] = test system: PC-3
[55] = test system: SK-MEL-5
[56] = test system: OVCAR-8
[57] = test system: SW-620
[58] = test system: IGROV-1
[59] = test system: NCI/ADR-RES

CC1CN=C(NCc2ccccc2)S1 (stereo unspecified)
GI50 [1]: > 100 µM (inactive)
GI50 [2]: > 100 µM (inactive)
GI50 [3]: > 100 µM (inactive)
GI50 [4]: > 100 µM (inactive)
GI50 [5]: > 100 µM (inactive)
GI50 [6]: > 100 µM (inactive)
GI50 [7]: > 100 µM (inactive)
GI50 [8]: > 100 µM (inactive)
GI50 [9]: > 100 µM (inactive)
GI50 [10]: > 100 µM (inactive)
GI50 [11]: > 100 µM (inactive)
GI50 [12]: > 100 µM (inactive)
GI50 [13]: 29 µM (inactive)
GI50 [14]: > 100 µM (inactive)
GI50 [15]: > 100 µM (inactive)
GI50 [16]: > 100 µM (inactive)
GI50 [17]: > 100 µM (inactive)
GI50 [18]: > 100 µM (inactive)
GI50 [19]: > 100 µM (inactive)
GI50 [20]: > 100 µM
GI50 [21]: > 100 µM (inactive)
GI50 [22]: > 100 µM (inactive)
GI50 [23]: > 100 µM (inactive)
GI50 [24]: > 100 µM (inactive)
GI50 [25]: > 100 µM (inactive)
GI50 [26]: > 100 µM (inactive)
GI50 [27]: 39.1 µM (inactive)
GI50 [28]: > 100 µM (inactive)
GI50 [29]: > 100 µM (inactive)
GI50 [30]: > 100 µM (inactive)
GI50 [31]: 86.7 µM (inactive)
GI50 [32]: > 100 µM (inactive)
GI50 [33]: > 100 µM (inactive)
GI50 [34]: > 100 µM (inactive)
GI50 [35]: > 100 µM (inactive)
GI50 [36]: > 100 µM (inactive)
GI50 [37]: 4.17 µM (inactive)
GI50 [38]: > 100 µM (inactive)
GI50 [39]: 65 µM (inactive)
GI50 [40]: > 100 µM (inactive)
GI50 [41]: 28.4 µM (inactive)
GI50 [42]: > 100 µM (inactive)
GI50 [43]: > 100 µM (inactive)
GI50 [44]: 48.2 µM (inactive)
GI50 [45]: > 100 µM (inactive)
GI50 [46]: > 100 µM (inactive)

C=C1C(=O)OC2/C=C(\C)C(=O)CC3OC(C)(C)OC3(C)CC(OC(=O)/C(C)=C/C)C12 (stereo unspecified)
GI50 [1]: 21.9 µM (inactive)
GI50 [2]: 7.89 µM (inactive)
GI50 [3]: 2.99 µM (inactive)
GI50 [4]: 28.1 µM (inactive)
GI50 [5]: 3.66 µM (inactive)
GI50 [6]: 11.9 µM (inactive)
GI50 [7]: 28.9 µM (inactive)
GI50 [47]: 17.6 µM (inactive)
GI50 [48]: 13.6 µM (inactive)
GI50 [49]: 48.8 µM (inactive)
GI50 [8]: 17.9 µM (inactive)
GI50 [50]: 3.51 µM (inactive)
GI50 [9]: 7.46 µM (inactive)
GI50 [10]: 20.7 µM (inactive)
GI50 [11]: 10.9 µM (inactive)
GI50 [12]: 12.2 µM (inactive)
GI50 [51]: 6.35 µM (inactive)
GI50 [13]: 3.05 µM (inactive)
GI50 [14]: 0.897 µM (active)
GI50 [52]: 7.66 µM (inactive)
GI50 [15]: 22.5 µM (inactive)
GI50 [16]: 14.2 µM (inactive)
GI50 [17]: 23.6 µM (inactive)
GI50 [18]: 9.98 µM (inactive)
GI50 [19]: 19.4 µM (inactive)
GI50 [20]: 4.49 µM
GI50 [21]: 13.2 µM (inactive)
GI50 [22]: 12.6 µM (inactive)
GI50 [23]: 3.68 µM (inactive)
GI50 [24]: 20.4 µM (inactive)
GI50 [25]: 10.4 µM (inactive)
GI50 [53]: 42 µM (inactive)
GI50 [26]: 10.8 µM (inactive)
GI50 [27]: 19.6 µM (inactive)
GI50 [54]: 25.8 µM (inactive)
GI50 [28]: 15.9 µM (inactive)
GI50 [29]: 13.9 µM (inactive)
GI50 [55]: 14.7 µM (inactive)
GI50 [30]: 13.7 µM (inactive)
GI50 [31]: 23.4 µM (inactive)
GI50 [32]: 55.5 µM (inactive)
GI50 [33]: 7.43 µM (inactive)
GI50 [56]: 20.6 µM (inactive)
GI50 [57]: 4.69 µM (inactive)
GI50 [34]: > 80.9 µM (inactive)
GI50 [35]: 17.1 µM (inactive)
GI50 [36]: > 42.9 µM (inactive)
GI50 [37]: 12 µM (inactive)
GI50 [38]: 17.6 µM (inactive)
GI50 [39]: 3.26 µM (inactive)
GI50 [40]: 20.2 µM (inactive)
GI50 [41]: 13.2 µM (inactive)
GI50 [42]: 58.1 µM (inactive)
GI50 [43]: 27.5 µM (inactive)
GI50 [44]: 4.05 µM (inactive)
GI50 [45]: 17.1 µM (inactive)
GI50 [58]: 14.4 µM (inactive)
GI50 [46]: 6.61 µM (inactive)

Cc1cc(S(=O)(=O)O)ccc1/N=N/c1ccc(/N=N/c2c(O)ccc3ccccc23)c(C)c1
GI50 [2]: 70.3 µM (inactive)
GI50 [3]: 26 µM (inactive)
GI50 [4]: > 100 µM (inactive)
GI50 [5]: > 100 µM (inactive)
GI50 [6]: 67.3 µM (inactive)
GI50 [7]: > 100 µM (inactive)
GI50 [47]: 51.2 µM (inactive)
GI50 [48]: 46.7 µM (inactive)
GI50 [49]: 50.4 µM (inactive)
GI50 [8]: 31.6 µM (inactive)
GI50 [50]: 53.2 µM (inactive)
GI50 [10]: 89.7 µM (inactive)
GI50 [11]: > 100 µM (inactive)
GI50 [12]: 26.9 µM (inactive)
GI50 [51]: > 100 µM (inactive)
GI50 [14]: 18.1 µM (inactive)
GI50 [52]: 21.3 µM (inactive)
GI50 [15]: > 100 µM (inactive)
GI50 [16]: 82 µM (inactive)
GI50 [17]: 20.5 µM (inactive)
GI50 [18]: 28.8 µM (inactive)
GI50 [19]: > 100 µM (inactive)
GI50 [20]: 32.1 µM
GI50 [21]: 74 µM (inactive)
GI50 [22]: 55.3 µM (inactive)
GI50 [23]: 92.9 µM (inactive)
GI50 [24]: > 100 µM (inactive)
GI50 [25]: > 100 µM (inactive)
GI50 [53]: 94.8 µM (inactive)
GI50 [26]: 39.4 µM (inactive)
GI50 [27]: 37.9 µM (inactive)
GI50 [54]: > 100 µM (inactive)
GI50 [29]: 80.4 µM (inactive)
GI50 [55]: > 100 µM (inactive)
GI50 [30]: > 100 µM (inactive)
GI50 [31]: 85.3 µM (inactive)
GI50 [32]: > 100 µM (inactive)
GI50 [33]: 34.2 µM (inactive)
GI50 [56]: 49.8 µM (inactive)
GI50 [57]: 42.3 µM (inactive)
GI50 [34]: > 100 µM (inactive)
GI50 [59]: > 100 µM (inactive)
GI50 [36]: 41.6 µM (inactive)
GI50 [37]: > 100 µM (inactive)
GI50 [38]: > 100 µM (inactive)
GI50 [40]: 33.2 µM (inactive)
GI50 [41]: 50.1 µM (inactive)
GI50 [42]: > 100 µM (inactive)
GI50 [43]: 36.4 µM (inactive)
GI50 [44]: > 100 µM (inactive)
GI50 [58]: 54.7 µM (inactive)
GI50 [46]: 49.1 µM (inactive)
